Data reported in ChEMBL document CHEMBL1147394, “Zaragozic acids D and D2: potent inhibitors of squalene synthase and of Ras farnesyl-protein transferase” (J Nat Prod, 1993).

Assays:
[1] = Inhibition of bovine Ras FPTase; design: species or system Bos taurus
Squalene synthase = target: T1, Squalene synthase (Rattus norvegicus, UniProt Q02769); experiment: Inhibition of rat liver squalene synthase by liqiud scintillation counting
T1 sequence (Q02769 whole entry): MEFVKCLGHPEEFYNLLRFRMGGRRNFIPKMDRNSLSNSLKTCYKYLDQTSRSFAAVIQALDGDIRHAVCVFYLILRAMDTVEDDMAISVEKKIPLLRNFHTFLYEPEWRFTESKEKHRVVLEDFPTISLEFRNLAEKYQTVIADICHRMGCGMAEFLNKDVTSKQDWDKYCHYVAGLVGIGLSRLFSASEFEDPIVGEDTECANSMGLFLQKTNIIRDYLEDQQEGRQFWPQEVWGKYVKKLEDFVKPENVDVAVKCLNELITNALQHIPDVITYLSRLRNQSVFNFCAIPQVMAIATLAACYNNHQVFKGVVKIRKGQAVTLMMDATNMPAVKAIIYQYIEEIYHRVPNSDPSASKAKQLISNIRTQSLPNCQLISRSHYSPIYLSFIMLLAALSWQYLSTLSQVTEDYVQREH

Compound | IC50 [1] | IC50 (Squalene synthase)
C=C(CC[C@]12O[C@H](C(=O)O)[C@@](O)(C(=O)O)[C@](C(=O)O)(O1)[C@H](OC(=O)/C=C/[C@@H](C)C[C@@H](C)CC)[C@H]2O)[C@@H](OC(C)=O)[C@H](C)Cc1ccccc1 [ZARAGOZIC ACIDS A] | 250 nM | –
C/C=C/CCCC/C=C/CCCCC(=O)O[C@@H]1[C@@H](O)[C@@]2(CCC(C)C(O)C(C)C/C=C/c3ccccc3)O[C@H](C(=O)O)[C@@](O)(C(=O)O)[C@]1(C(=O)O)O2 (some centres undefined) [ZARAGOZIC ACID B] | 1000 nM | 0.2 nM

These reach a lower IC50 [1]. Values come first.

IC50 [1] | IC50 (Squalene synthase) | Compound
150 nM | 0.4 nM | CC(=O)O[C@H](CCC[C@]12O[C@H](C(=O)O)[C@@](O)(C(=O)O)[C@](C(=O)O)(O1)[C@H](OC(=O)CC/C=C/[C@H](C)CCCc1ccccc1)[C@H]2O)[C@H](C)Cc1ccccc1 [ZARAGOZIC ACID C]
100 nM | 6 nM | CCCCCCCC(=O)O[C@@H]1[C@@H](O)[C@@]2(CCCC(OC(C)=O)C(C)C/C=C/c3ccccc3)O[C@H](C(=O)O)[C@@](O)(C(=O)O)[C@]1(C(=O)O)O2 (some centres undefined) [ZARAGOZIC ACID D]
100 nM | 2 nM | CCCCCCCCCC(=O)O[C@@H]1[C@@H](O)[C@@]2(CCCC(OC(C)=O)C(C)C/C=C/c3ccccc3)O[C@H](C(=O)O)[C@@](O)(C(=O)O)[C@]1(C(=O)O)O2 (some centres undefined) [ZARAGOZIC ACID D2]
